The assay has as its system Fibroblast. Briefly: Anticancer activity against cobalt radiation CT-1 transformed fibroblasts. The format is functional, cell-based.
Compound `C=CCSS/C=C/C[S+]([O-])C(C)(C)C` (stereo not drawn) registered an IC50 of 33.1 µM.

Regarding `C=CCSS/C=C/C[S+]([O-])CCCO` (stereo not drawn), the IC50 stood at 23.1 µM.

For the compound `C=CCSS/C=C\C[S+]([O-])CCC` (stereo not drawn), the IC50 stood at 17 µM.

With `C=CCSS/C=C/C[S+]([O-])CCCN1C(=O)c2ccccc2C1=O` (stereo not drawn), it took 95.9 µM to reach half-maximal inhibition (IC50).

The compound `C=CCSS/C=C\C[S+]([O-])CCCO` (stereo not drawn) registered an IC50 of 22.8 µM.

On to `C=CCSS/C=C/C[S+]([O-])Cc1ccc(OC)cc1` (stereo not drawn), for which the IC50 was 11.2 µM.

`C=CCSS/C=C/C[S+]([O-])Cc1ccccc1` (stereo not drawn) returned an IC50 of 16.6 µM.

`C=CCSS/C=C\C[S+]([O-])CCCN1C(=O)c2ccccc2C1=O` (stereo not drawn) yielded an IC50 of 34.6 µM.

For `C=CCSS/C=C/C[S+]([O-])CC=C` (stereo not drawn) [AJOENE], the IC50 stood at 17.6 µM. This IC50 is about 2-fold lower than that of the compound before.

For the compound `C=CCSS/C=C\C[S+]([O-])CCCOCc1ccc(OC)cc1` (stereo not drawn), inhibition was half-maximal at 21.7 µM (IC50).

Turning to `C=CCSS/C=C\C[S+]([O-])CC=C` (stereo not drawn) [(Z)-Ajoene], 15.5 µM corresponded to half-maximal inhibition (IC50). This IC50 and that of the compound before are within 1.5-fold of each other.

Regarding `C=CCSS/C=C/C[S+]([O-])CCCOCc1ccc(OC)cc1` (stereo not drawn), the IC50 is 23.5 µM.

The compound `C=CCSS/C=C/C[S+]([O-])CCC` (stereo not drawn) registered an IC50 of 26.7 µM.

What is called IC50 is the concentration at which inhibition is half-maximal. Lower therefore signals inhibition by little substance.

The values above are taken from ChEMBL document CHEMBL1141704, “Substituted ajoenes as novel anti-cancer agents” (Bioorg Med Chem Lett, 2008).
